Target: NDM-1 (New Delhi metallo-β-Lactamase) (Klebsiella pneumoniae, UniProt C7C422)
Assay type: biochemical

Sequence of NDM-1 (New Delhi metallo-β-Lactamase) (C7C422 29-270 limits assumed): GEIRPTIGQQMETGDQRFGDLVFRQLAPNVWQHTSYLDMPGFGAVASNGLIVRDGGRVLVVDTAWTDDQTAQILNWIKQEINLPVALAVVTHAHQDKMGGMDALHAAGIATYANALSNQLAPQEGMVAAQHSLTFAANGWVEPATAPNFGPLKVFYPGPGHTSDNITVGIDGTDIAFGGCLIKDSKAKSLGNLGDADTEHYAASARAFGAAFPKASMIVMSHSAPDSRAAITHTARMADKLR

SMILES: COC(=O)[C@@H]1COC2CSC(CS)N21 (stereo partly shown) [4f]
- Ki: 1600 ± 600 nM

Reference: PMC5451161 (Tetrahedron, asymmetry, 2016)
